pIC50: −log10 of the molar value. Entries after “also recorded” stand apart in the source; their conditions may differ. Read-outs that look alike come from different tables or passages of the source. No end group written: not given here.
Assays:
Fαi1GDPβ1γ2 heterotrimer = target: T1, Fαi1GDPβ1γ2 heterotrimer (UniProt P54311+P63212); assay: Dissociation of Fαi1 from preformed Fαi1β1γ2 heterotrimer (flow cytometry); type: binding; conditions: result in words
T1 construct: made in house; host or cells: b-βγ: Sf9 insect cells

[1] = tested on: human μ opioid receptor (hMOR-CHO cells); assay: Total inositol phosphate assay in hMOR-CHO cells; type: cell-based
Description: Chinese hamster ovary (CHO) cells stably expressing either the human κ (hKOR-CHO), δ (hDOR-CHO)(L. Toll, Stanford Research Institute, Palo Alto, Calif.) or μ (hMOR-CHO)(G. Uhl, National Institute on Drug Abuse, Baltimore, Md.) opioid receptor were used in the experiments. Cells in 6-well plates were labeled by adding 4 μCi of [^3H]inositol for 24 hr in inositol-free F-10 media, without serum. After labeling, LiCl was added directly to the labeling media at a final concentration of 10 mM. Ligands or peptides were added at the same time. The final volume of each well was 1 mL. The plates were put back in to the incubator at 37° C. for 30 min after which time the medium was aspirated and the plates were washed twice with 1× PBS. Ice-cold 50 mM formic acid, 1 mL, was added to the plates which were placed in the cold room at 4° C. for 30 min. After the incubation, the contents of the plates were applied to Dowex AG1-X8 columns and allowed to flow all the way through the column. The columns were washed, twice each, with 50 and 100 mM formic acid, for a total of four washes, followed by elution of the IP-containing fraction with 3 mL of 1.2 M ammonium formate/0.1 M formic acid. The eluted fraction was mixed with Scintisafe scintillation fluid, for high salt, and counted. The data are represented as the fold increase over control in total inositol phospates. All experiments were repeated three times and performed in duplicate. Control cells for each experiment were labeled with [^3H]inositol and LiCl, in the same manner as the treatment groups.

[2] = tested on: opioid-induced antinociception in mice; assay: 55° C. warm-water tail-flick antinociception; type: in vivo, mouse; conditions: i.c.v., 20 min, 55° C. tail-flick; 95% CL in parentheses
PLCβ2 = assay: Gβ1γ2-dependent activation of purified PLCβ2; type: biochemical
Description: (§1) Purified PLCβ2 (0.25 ng) was assayed in the presence (▴) or absence (▪) of 100 nM purified Gβ1γ2. […] Assays contained 10 ng of purified p101/p110 PI3Kγ heterodimer with or without 100 nM purified Gβ1γ2. Left panel: (▴) 100 nM Gβ1γ2 or (▪) no βγ. […] M119 or M201 and 25 nM purified GRK2 were added simultaneously to 250 nM biotinylated Gβ1γ2 (bGβ1γ2) immobilized on streptavidin agarose. GRK2 was detected with antibody to GRK2. Data are representative (mean ±SEM, except D) repeated at least three times each. […] 30 nM bGβ1γ2 was incubated with either 30 nM PLCβ2 or PLCβ3 in the presence or absence of M119 or M201 for 16 h at 4° C. before precipitation with avidin agarose and detection with PLCβ2,or Gβ antibodies. […] Same as 4E with PLCβ3.
(§2) The ability of NSC119910 analogs to selectively modulate activation PLC-β2 and -β3 was analyzed. In this assay, PLC-β2 and PLC-β3 were purified and PLC enzymatic activity was measured in the presence or absence of purified βy and in the presence or absence of analog.
(§3) Nevertheless, M119 and M201 were tested in in vitro reconstitution assays of Gβγ-dependent activation of PLCβ2, PLCβ3 and PI3Kγ and binding to GRK2. […] These are only two of multiple diverse compounds identified, indicating potential for multiple modes of Gβγ-dependent target modulation by these small molecules.

[3] = tested on: ERK1 and ERK2 activation in differentiated HL60 cells; assay: fMLP-induced ERK1 and ERK2 activation in differentiated HL60 cells; type: cell-based, human; conditions: 10 μM compound, 1 μM fMLP; result in words
Description: (§4) Cells were pretreated with DMSO or 10 μM compounds for 5 min prior to stimulation with 250 nM fMLP. […] Normalized peak Ca^2+ responses were pooled from three independent experiments each (mean±SEM). Cells were pretreated with DMSO (▪) or compounds (▴) for 5 min prior to stimulation. FIG. 5C is the same as A except 10 μM M201 was tested. […] Differentiated HL60 cells were treated with 10 μM compound prior to stimulation with 250 nM fMLP. Translocation of endogenous GRK2 was determined by Western blotting with a GRK2 antibody and quantitative chemiluminescence. Data are mean±SEM from 5 experiments, * P<0.05, **P<0.01 ANOVA. […] Differentiated HL60 cells stably over-expressing GFP-PHAkt were treated with 10 μM compound prior to stimulation with 100 nM fMLP. Translocation of GFP-PHAkt to the membrane was determined by Western blotting with an anti-GFP antibody and quantitative chemiluminescence. Data are mean±SEM from 4 experiments. *** P<0.001 ANOVA. […] Differentiated HL60 cells were pretreated with 10 μM of compound prior to stimulation with 1 μM fMLP for 5 min. Levels of phosphorylated and total ERK were determined by Western blotting.

[4] = tested on: fMLP-dependent Ca2+ release in differentiated HL60 cells; assay: fMLP-dependent Ca2+ release in fura-2 loaded DMSO-differentiated HL60 cells; type: cell-based, human; conditions: 10 μM compound, 250 nM fMLP; result in words
Description: as §4
Ca^2+ fluxes were measured using two 35 mL cultures of differentiated HL-60 neutrophil cultures (0.2×10^6 cells/mL). Cells were cultured for three days with in DMSO
(1.2%), washed in HSS and resuspended in 2 mL HBSS at a concentration of 7×10^s cells/mL. Addition of DMSO to the growth medium induces differentiation of these cells into morphologically and functionally mature neutrophils
(Collins, et al. (1978) Proc. Natl. Acad. Sci. USA 75:2458; Collins, et al. (1979) J. Exp. Med. 149:969). Neutrophils were preloaded with fura-2 (1 μM), a fluorescent Ca^2+-sensitive indicator (Suh, et al. (1996) J. Biol. Chem. 271:32753), for 45 minutes, washed with HBSS and resuspended in 2 mL of indicator-free HBSS. An 140 μL aliquote of cells was added to a total of 2 mL HBSS. Fluorescence ratios were taken by dual excitation at 340 and 380 nm and emission at 510 nm. After a stable baseline was established, either DMSO or NSC119910 was added and incubated for 5 minutes. […]

Gαi1-Gβ1γ2 interaction = target: T2, Gαi1-Gβ1γ2 interaction (UniProt P54311+P63212); assay: Flow cytometry competition for FITC-Gαi1 binding to immobilized b-Gβ1γ2; conditions: peptides; read-out: IC50 for competition with Gαi binding to Gβ1γ2
T2 construct: made in house; host or cells: b-βγ: Sf9 insect cells
Description: (2003) supra; Sarvazyan, et al. (1998) J. Biol. […] Fluorescein-labeled Ga^ (Fan) was prepared in accordance with standard methods (Sarvazyan, et al. (1998) supra). Assays were used to determine peptide effects on Gα-Gβγ interactions included competition and dissociation assays (Ghosh, et al. (2003) supra). […] The bead-associated fluorescence was then recorded in a BD Biosciences […] flow cytometer. Data was corrected for background fluorescence and fit with a sigmoid dose response curve using Graph Pad Prism 4. To measure dissociation of Fan from b-Gβaγ2, 100 pM of Fa^ was incubated with 50 pM immobilized b-Gβ1γ2 at room temperature for 15-20 minutes.

PLCβ3 = assay: Gβ1γ2-dependent activation of purified PLCβ3; type: biochemical; set-up: key to PLCb3: NE = No effect; conditions: Table 19, effector IC50
Description: as §1, §2, §3

PI3Kγ = assay: Gβ1γ2-dependent activation of purified p101/p110 PI3Kγ; type: biochemical; conditions: Table 19, effector IC50; read-out: PI 3-Kg
Description: as §1, §3

Gβ1γ2 = Gβ1γ2 (UniProt P54311+P63212); assay: Competition phage ELISA: inhibition of SIGK-phage binding to immobilized biotinylated Gβ1γ2; set-up: made in house; host or cells: Sf9 insect cells (baculovirus; co-expressed with BirA and (His)6-Gαi1, from which βγ was eluted); species or system rat
Description: Phage ELISA assays used to assess peptide binding to wild-type and mutant b-βγ were performed according to standard methods (Smrcka and Scott (2002) Methods Enzymol. 344:557-76). Briefly, 1 μg streptavidin was immobilized in the well of a […] overnight at 4° C. The wells were blocked with 100 μL of 2% bovine serum albumin (BSA) in Tris-buffered saline (TBS) for 1 hour at 4° C. followed by three washes of IX TBS/0.5% TWEEN®. […] The wells were washed, followed by the addition of IxIO^6 to IxIO^10 phage particles and incubated at 4° C. for 3 hours. The wells were then washed six times with TBS/0.5% TWEEN® followed by addition of 40 μL of 1:5000 dilution of anti-M13 antibody (Pharmacia, Uppsala, Sweden) and incubated at room temperature for 1 hour. The wells were washed, followed by the addition of 40 μL of (2,2′-Azino-bis (3-ethylbenzthiazoline)-6-sulfonic acid (ABTS) and the colorimetric reaction was monitored at 405 nm. Nonspecific binding was subtracted for each reading.
A phage ELISA assay was used to determine whether small molecules identified in the computational screen could interact with the Gβy protein interaction surface. […] The screen was based on a reduction in the optical density (OD) of wells containing Gβγ subunits and phage. […] Three background wells contained no βy subunits.
As disclosed herein, biotinylated Gβy subunits were immobilized on the surface of a 96-well plate coated with streptavidin, phage displaying Gβγ-binding peptides were subsequently added and binding in the presence and absence of test compounds detected with an anti-phage antibody.
The phage ELISA assay was used to rapidly screen the ability of compounds to bind to the protein interaction “hot spot” based on the method of Scott et. al (Scott et al., 2001). This assay is performed in the presence of detergent (0.5% Tween) to eliminate non-specific compound aggregation artifacts.
Compounds/DMSO and 0.1×10^10 phage were added simultaneously and subsequently incubated for 1 h at room temperature. Plates were then washed with 1× Tris-buffered saline/0.5% Tween 20 and incubated with anti-M13, HRP-conjugated antibody (Amersham, Chalfont St. Giles, Buckinghamshire, UK). Phage binding was determined by monitoring A405 upon addition of 2,2′-azino-bis(3-ethylbenzothiazoline-6-sulfonic acid) (Sigma Aldrich).

[5] = tested on: carrageenan-induced paw edema in mice; assay: Carrageenan-induced paw edema and neutrophil abundance

## CC[C@H](C)[C@H](NC(=O)[C@H](CC(N)=O)NC(=O)[C@H](CC(C)C)NC(=O)[C@H](C)NC(=O)[C@H](C)NC(=O)[C@H](CCCNC(=N)N)NC(=O)[C@@H](NC(=O)[C@@H](N)CO)[C@@H](C)CC)C(=O)N[C@@H](CC(C)C)C(=O)NCC(=O)N[C@@H](Cc1ccc(O)cc1)C(=O)N1CCC[C@H]1C(=O)N[C@@H](CC(=O)O)C(=O)N[C@@H](Cc1ccc(O)cc1)C(=O)N[C@@H](CC(=O)O)C(=O)O [SIRK(Lys4Ala)]
Fαi1GDPβ1γ2 heterotrimer
  promotion/acceleration of heterotrimer dissociation: failed to accelerate heterotrimer dissociation

## C[C@@H](NC(=O)[C@@H](N)Cc1ccc(O)cc1)C(=O)NCC(=O)N(C)[C@@H](Cc1ccccc1)C(=O)NCCO [DAMGO, [D-Ala^2, N-Me-Phe^4, Gly^5-ol]-enkephalin]
[1]
  increase in total IP compared to control: 4 fold
[2]
  ED50 of opioid agonist alone: 0.07 nmol

## Nc1cccc(Nc2cc(S(=O)(=O)O)c(N)c3c2C(=O)c2ccccc2C3=O)c1 [drawing 56]
PLCβ2; Table 3, read-out: PLCβ2 IC50
  pIC50: 4.85

## O=C(O)c1cccc2cccc(-c3c4ccc(=O)c(O)c-4oc4c(O)c(O)ccc34)c12 [Compound M119K]
[3]
  effect on fMLP-induced activation of ERK1 and ERK2: without interfering
[4]
  effect on fMLP-induced Ca^2+ increase: block

## COC(=O)/C=C/C(=O)N[C@@H]1CC[C@@]2(O)[C@H]3Cc4ccc(O)c5c4[C@@]2(CCN3CC2CC2)[C@H]1O5 [β-FNA, β-funaltrexamine]
[1]
  effect on DAMGO- and morphine-dependent IP production: attenuated

## SIRKALNILAYPDYD [SIRK(GIyIOAIa)]
Fαi1GDPβ1γ2 heterotrimer
  promotion/acceleration of heterotrimer dissociation: could still accelerate heterotrimer dissociation
Gαi1-Gβ1γ2 interaction
  pIC50: ~4.10

## Nc1ccc(Nc2cc(S(=O)(=O)O)c(N)c3c2C(=O)c2ccccc2C3=O)cc1 [drawing 55]
PLCβ2; Table 3, read-out: PLCβ2 IC50
  pIC50: 4.12

## O=C1c2ccccc2C(=O)c2c(Nc3cc4c5c(ccc6c7ccc8c9c(cc(Nc%10cccc%11c%10C(=O)c%10ccccc%10C%11=O)c(c3c56)c97)-c3ccccc3C8=O)C(=O)c3ccccc3-4)cccc21 [Compound M231]
PLCβ3
  PLCb3: NE
PI3Kγ
  pIC50: 4.87
Gβ1γ2; Table 8, read-out: IC50
  pIC50: 4.80
Gβ1γ2; Table 18, compounds identified in Elisa screen, read-out: IC50
  pIC50: 4.80
Gβ1γ2; Table 19, read-out: ELISA
  pIC50: 4.57
PLCβ2; Table 19, effector IC50, read-out: PLCb2
  pIC50: 3.78

## C[C@H](NC(=O)[C@H](CS)NC(=O)[C@@H](N)CO)C(=O)N[C@@H](CCCNC(=N)N)C(=O)N[C@@H](Cc1ccccc1)C(=O)N[C@@H](Cc1ccccc1)C(=O)NCC(=O)N[C@H](C(=O)N1CCC[C@H]1C(=O)NCC(=O)N[C@@H](CS)C(=O)N[C@H](C(=O)O)[C@@H](C)O)[C@@H](C)O [SCAR]
Fαi1GDPβ1γ2 heterotrimer
  promotion/acceleration of heterotrimer dissociation: could not promote dissociation of a preformed heterotrimer; also recorded: the same as the intrinsic rate

## COc1ccc2c(c1)c(CC(=O)O)c(C)n2C(=O)c1ccc(Cl)cc1 [indomethacin]
[5]; i.p. 1 h before carrageenan, gallein 100 mg/kg, indomethacin 2.5 mg/kg, result in words
  effect on carrageenan-induced paw edema: sharply reduced
[5]; i.p. pretreatment, 2 h after carrageenan
  reduction of exudate volume: approximately 75%

## Nc1ccc(-c2ccc(Nc3cc(S(=O)(=O)O)c(N)c4c3C(=O)c3ccccc3C4=O)cc2)c(S(=O)(=O)O)c1 [drawing 57]
PLCβ2; Table 3, read-out: PLCβ2 IC50
  pIC50: < 4.52
